Assay results from ChEMBL document CHEMBL1201862, “PubChem BioAssay data set” (2004).
Activity calls are given as the source filed them.

How the values were obtained:
[1] = system: Escherichia coli; test: microbe, parasite or virus in culture
[2] = molecular target: T1, Interleukin-8 (Homo sapiens, UniProt P10145); test: SAR analysis of Tumor necrosis factor alpha (TNF-alpha) induced IL-8 secretion in MCF-7/NOD1 cells - Set 2. [Related pubchem assays (depositor defined):AID1575, AID2250, AID2260]; assay type: functional, cell-based
T1 sequence (P10145 whole entry): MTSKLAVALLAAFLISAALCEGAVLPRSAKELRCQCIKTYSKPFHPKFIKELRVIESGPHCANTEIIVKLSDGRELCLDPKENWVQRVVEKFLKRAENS

[3] = system: HEK293; test: cells; details: Homo sapiens;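 note: cells exposed to compound for 14 hours overnight before viability readout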
[4] = molecular target: T1, Interleukin-8; test: SAR analysis of GM-Tri-DAP induced IL-8 secretion in MCF-7/NOD1 cells - Set 2. [Related pubchem assays (depositor defined):AID1575, AID1578, AID2333]; assay type: functional, cell-based
[5] = molecular target: T2, Nucleotide-binding oligomerization domain-containing protein 1 (Homo sapiens, UniProt Q9Y239); test: NOD1 signaling inhibitors, SAR follow-up, revised (AID 2333); assay type: functional
T2 sequence (Q9Y239 whole entry): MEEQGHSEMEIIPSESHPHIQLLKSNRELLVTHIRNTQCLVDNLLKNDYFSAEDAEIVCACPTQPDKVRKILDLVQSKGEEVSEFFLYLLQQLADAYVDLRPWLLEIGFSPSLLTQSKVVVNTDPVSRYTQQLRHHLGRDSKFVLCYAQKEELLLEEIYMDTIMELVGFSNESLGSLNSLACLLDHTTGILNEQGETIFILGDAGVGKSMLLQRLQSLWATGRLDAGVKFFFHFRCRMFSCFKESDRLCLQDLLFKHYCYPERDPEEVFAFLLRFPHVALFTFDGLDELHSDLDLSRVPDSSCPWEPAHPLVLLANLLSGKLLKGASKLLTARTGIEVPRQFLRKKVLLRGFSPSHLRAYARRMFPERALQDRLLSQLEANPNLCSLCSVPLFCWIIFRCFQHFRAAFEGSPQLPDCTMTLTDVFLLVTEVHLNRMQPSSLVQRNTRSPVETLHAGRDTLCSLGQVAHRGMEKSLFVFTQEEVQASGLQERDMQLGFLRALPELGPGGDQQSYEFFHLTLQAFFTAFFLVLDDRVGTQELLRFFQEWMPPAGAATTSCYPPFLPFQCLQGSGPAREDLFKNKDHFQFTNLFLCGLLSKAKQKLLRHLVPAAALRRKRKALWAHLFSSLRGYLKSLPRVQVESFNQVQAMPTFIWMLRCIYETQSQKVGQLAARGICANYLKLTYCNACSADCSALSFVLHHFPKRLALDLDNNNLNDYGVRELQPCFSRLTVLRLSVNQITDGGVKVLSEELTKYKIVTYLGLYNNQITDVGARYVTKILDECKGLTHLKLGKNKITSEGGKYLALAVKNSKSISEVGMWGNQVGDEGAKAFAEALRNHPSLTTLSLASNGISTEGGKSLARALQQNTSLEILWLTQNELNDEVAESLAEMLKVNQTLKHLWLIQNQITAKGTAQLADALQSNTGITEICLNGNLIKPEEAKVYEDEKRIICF

[6] = molecular target: Tumor necrosis factor (Homo sapiens, UniProt P01375); test: TNFa-triggered NF-kB activation inhibitors, SAR follow-up, cell-based, revised (AID 2337); assay type: functional
[7] = molecular target: T3, Hexokinase (Trypanosoma brucei, UniProt Q38C41); test: Confirmation assay for inhibitors of Trypanosoma brucei hexokinase 1-Analogue-first series. [Related pubchem assays (depositor defined):AID1430, AID1632, AID2516, AID2560, AID2579, AID2600, AID449725, AID492951]; assay type: functional
T3 sequence (Q38C41 whole entry): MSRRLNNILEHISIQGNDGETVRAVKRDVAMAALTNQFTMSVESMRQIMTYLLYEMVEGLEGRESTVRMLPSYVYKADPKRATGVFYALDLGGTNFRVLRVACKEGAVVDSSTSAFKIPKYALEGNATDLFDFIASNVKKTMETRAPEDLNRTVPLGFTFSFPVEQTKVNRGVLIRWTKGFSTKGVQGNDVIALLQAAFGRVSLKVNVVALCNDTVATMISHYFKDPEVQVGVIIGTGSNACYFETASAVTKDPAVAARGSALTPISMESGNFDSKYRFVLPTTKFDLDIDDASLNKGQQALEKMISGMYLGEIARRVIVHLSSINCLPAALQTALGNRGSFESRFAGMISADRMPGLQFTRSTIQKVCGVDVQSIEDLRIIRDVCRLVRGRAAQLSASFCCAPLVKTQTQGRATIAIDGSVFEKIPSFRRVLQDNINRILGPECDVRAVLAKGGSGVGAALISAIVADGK

[8] = system: H9c2; test: cells; assay type: functional, cell-based; details: Rattus norvegicus, H9c2, Myocardium;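 note: confirmatory concentration-response retest of ultra-high-throughput screening hits for modulation of myocardial damage; cell death induced by hydrogen peroxide oxidative stress; compound pretreatment for 60 min then peroxide exposure for 2 h; potency is for protecting the cells against peroxide damage rather than for killing them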
[9] = cytotoxicity in HEK-293T cells, dose response, cytotoxicity control for BCR NF-kB inhibitor project, luminescence, B-cell screen hits (AID 489021); assay type: functional, cell-based;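 note: HEK-293T cells carrying an NF-kB luciferase reporter; cells exposed to compound for about 14 hours before viability readout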
[10] = molecular target: T4, Ubiquitin-conjugating enzyme E2 N (Homo sapiens, UniProt P61088); assay type: functional
T4 sequence (P61088 whole entry): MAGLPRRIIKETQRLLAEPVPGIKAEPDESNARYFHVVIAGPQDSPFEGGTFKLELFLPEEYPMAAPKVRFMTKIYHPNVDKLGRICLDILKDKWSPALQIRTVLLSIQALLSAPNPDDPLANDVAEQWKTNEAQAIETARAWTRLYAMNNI

[11] = molecular target: T4, Ubiquitin-conjugating enzyme E2 N; assay type: functional; remark: listed apart in the source
[12] = molecular target: T5, Bcl-2-related protein A1 (Mus musculus, UniProt Q07440); assay type: functional;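 note: confirmatory dose–response counterscreen on Bfl-1, used to check hits from a UBC13 polyubiquitin inhibitor campaign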
T5 sequence (Q07440 whole entry): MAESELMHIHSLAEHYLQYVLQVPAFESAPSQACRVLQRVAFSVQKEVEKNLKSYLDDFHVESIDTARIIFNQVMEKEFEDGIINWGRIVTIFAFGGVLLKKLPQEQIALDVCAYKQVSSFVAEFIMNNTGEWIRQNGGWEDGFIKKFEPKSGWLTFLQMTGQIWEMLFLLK

[13] = system: Escherichia coli; test: microbe, parasite or virus in culture; remark: listed apart in the source
[14] = molecular target: Beta-galactosidase (Escherichia coli, UniProt Q8VNN2); test: beta-galactosidase enzyme inhibitors and activators, dose response, artefact control for CCR6 antagonist project, biochemical, E. coli enzyme, set 3 (AID 504712); assay type: functional
[15] = molecular target: G-protein coupled receptor 55 (Homo sapiens, UniProt Q9Y2T6); test: GPR55 antagonists blocking LPI-driven arrestin recruitment, primary screen, imaging, U2OS, beta-arrestin-GFP, LPI agonist (AID 2013); assay type: functional;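 note: antagonist potency measured as reduced agonist-driven arrestin aggregation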
[16] = molecular target: T6, Fatty acid synthase (Homo sapiens, UniProt P49327); test: FAS thioesterase domain inhibitors, dose response, biochemical, kinetic fluorescence intensity (AID 624326); assay type: functional;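 note: rate of fluorescence rise from hydrolysis of a fluorogenic O-methyl fluorescein ester substrate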
[17] = molecular target: Heat shock protein HSP 90-alpha (Homo sapiens, UniProt P07900); assay type: functional, organism-based
[18] = molecular target: T6, Fatty acid synthase; test: FAS thioesterase domain inhibitors, dose response, biochemical, endpoint fluorescence intensity, uHTS hits (AID 624327); assay type: functional;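 note: fluorescence from hydrolysis of an O-methyl fluorescein acyl ester substrate by the enzyme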
[19] = molecular target: Glyceraldehyde-3-phosphate dehydrogenase (Homo sapiens, UniProt P04406)
[20] = molecular target: Alkaline phosphatase, placental type (Homo sapiens, UniProt P05187); test: PLAP enzyme inhibitors, confirmation, biochemical, luminescence (AID 1512); assay type: functional
[21] = inhibitors of firefly luciferase expression or activity, dose response, H4 neuroglioma cells, luminescence (AID 1990); assay type: functional, cell-based
[22] = inhibitors of SNCA 5'UTR-driven reporter translation, confirmation, H4 neuroglioma cells, luminescence (AID 1988); assay type: functional, cell-based
[23] = Luminescence Cell-Based Dose Response HTS to Identify Inhibitors of 5'UTR Stem-Loop Driven Prion Protein mRNA Translation in H4 Neuroglioblastoma Cells. [Related pubchem assays: 1827 (Project Summary), 1813 (Primary HTS)]; assay type: functional
[24] = system: Streptococcus sp. 'group A'; test: growth inhibition of control SK(-) GAS strain, dose response, counter-screen for streptokinase expression inhibitor project, luminescence, kanamycin, BacTiterGlo, confirmation (AID 1900); assay type: functional, organism-based
[25] = molecular target: T7, Streptokinase A (Streptococcus pyogenes serotype M1, UniProt P10520); test: S. pyogenes streptokinase expression inhibitors, potency, dose response, plasminogen activation absorbance, OD405 (AID 1914); assay type: functional, Streptococcus pyogenes M1 GAS;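 note: secreted streptokinase activity via plasminogen activation per viability signal from cell pellet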
T7 sequence (P10520 whole entry): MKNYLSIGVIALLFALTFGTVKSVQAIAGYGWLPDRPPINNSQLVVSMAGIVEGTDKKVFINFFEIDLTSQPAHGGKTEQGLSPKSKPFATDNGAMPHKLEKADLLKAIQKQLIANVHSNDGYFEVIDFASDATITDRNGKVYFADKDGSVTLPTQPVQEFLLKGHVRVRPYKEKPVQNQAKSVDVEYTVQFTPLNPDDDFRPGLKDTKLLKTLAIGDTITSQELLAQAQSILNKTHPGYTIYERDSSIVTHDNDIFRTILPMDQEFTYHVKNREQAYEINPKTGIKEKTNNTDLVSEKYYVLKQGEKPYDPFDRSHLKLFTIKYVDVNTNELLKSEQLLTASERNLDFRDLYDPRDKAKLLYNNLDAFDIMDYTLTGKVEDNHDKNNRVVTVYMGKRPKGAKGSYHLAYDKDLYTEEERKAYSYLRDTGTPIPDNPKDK

[26] = system: Streptococcus; test: Group A Streptococcus viability loss, dose response, counter-screen for streptokinase expression inhibitor project, luminescence, BacTiterGlo (AID 1915); assay type: functional, organism-based;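 note: potency for reduction of bacterial viability or growth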

Sequence of Beta-galactosidase (Q8VNN2 whole entry): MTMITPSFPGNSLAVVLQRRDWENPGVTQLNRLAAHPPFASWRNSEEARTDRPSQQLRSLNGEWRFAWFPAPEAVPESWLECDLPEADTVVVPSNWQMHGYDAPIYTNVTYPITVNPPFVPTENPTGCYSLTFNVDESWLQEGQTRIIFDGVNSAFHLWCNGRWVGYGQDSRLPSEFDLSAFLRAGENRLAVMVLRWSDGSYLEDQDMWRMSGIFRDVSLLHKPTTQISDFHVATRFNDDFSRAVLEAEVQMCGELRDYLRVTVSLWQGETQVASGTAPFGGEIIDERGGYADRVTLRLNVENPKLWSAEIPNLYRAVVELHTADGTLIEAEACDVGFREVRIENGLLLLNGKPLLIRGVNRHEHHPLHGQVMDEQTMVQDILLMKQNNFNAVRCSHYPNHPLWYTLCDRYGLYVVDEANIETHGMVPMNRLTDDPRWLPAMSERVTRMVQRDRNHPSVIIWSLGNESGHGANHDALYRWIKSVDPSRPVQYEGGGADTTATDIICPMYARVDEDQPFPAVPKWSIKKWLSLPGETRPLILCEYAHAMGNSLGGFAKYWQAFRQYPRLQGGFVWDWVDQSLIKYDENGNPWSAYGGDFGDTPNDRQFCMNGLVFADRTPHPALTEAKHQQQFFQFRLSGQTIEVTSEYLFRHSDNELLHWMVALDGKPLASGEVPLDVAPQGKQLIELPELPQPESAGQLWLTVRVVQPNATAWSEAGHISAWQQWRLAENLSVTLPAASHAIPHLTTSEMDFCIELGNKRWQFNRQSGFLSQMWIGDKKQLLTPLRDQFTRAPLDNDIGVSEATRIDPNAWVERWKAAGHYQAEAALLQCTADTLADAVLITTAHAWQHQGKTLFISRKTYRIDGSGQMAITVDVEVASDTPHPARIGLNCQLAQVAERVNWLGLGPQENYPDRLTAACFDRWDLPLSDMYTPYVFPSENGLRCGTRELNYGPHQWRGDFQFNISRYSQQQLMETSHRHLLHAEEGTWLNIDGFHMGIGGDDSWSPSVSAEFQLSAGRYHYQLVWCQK
Sequence of G-protein coupled receptor 55 (Q9Y2T6 whole entry, the tested form may be a part): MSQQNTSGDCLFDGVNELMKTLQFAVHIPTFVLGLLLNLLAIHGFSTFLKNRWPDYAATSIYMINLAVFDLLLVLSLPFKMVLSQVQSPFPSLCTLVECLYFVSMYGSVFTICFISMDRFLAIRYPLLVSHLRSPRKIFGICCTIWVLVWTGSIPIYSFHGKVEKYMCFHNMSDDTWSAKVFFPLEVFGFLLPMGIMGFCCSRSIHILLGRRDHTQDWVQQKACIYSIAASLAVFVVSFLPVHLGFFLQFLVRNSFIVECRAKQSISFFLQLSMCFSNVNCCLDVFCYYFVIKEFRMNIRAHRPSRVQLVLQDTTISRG
T6 sequence (P49327 whole entry, the tested form may be a part): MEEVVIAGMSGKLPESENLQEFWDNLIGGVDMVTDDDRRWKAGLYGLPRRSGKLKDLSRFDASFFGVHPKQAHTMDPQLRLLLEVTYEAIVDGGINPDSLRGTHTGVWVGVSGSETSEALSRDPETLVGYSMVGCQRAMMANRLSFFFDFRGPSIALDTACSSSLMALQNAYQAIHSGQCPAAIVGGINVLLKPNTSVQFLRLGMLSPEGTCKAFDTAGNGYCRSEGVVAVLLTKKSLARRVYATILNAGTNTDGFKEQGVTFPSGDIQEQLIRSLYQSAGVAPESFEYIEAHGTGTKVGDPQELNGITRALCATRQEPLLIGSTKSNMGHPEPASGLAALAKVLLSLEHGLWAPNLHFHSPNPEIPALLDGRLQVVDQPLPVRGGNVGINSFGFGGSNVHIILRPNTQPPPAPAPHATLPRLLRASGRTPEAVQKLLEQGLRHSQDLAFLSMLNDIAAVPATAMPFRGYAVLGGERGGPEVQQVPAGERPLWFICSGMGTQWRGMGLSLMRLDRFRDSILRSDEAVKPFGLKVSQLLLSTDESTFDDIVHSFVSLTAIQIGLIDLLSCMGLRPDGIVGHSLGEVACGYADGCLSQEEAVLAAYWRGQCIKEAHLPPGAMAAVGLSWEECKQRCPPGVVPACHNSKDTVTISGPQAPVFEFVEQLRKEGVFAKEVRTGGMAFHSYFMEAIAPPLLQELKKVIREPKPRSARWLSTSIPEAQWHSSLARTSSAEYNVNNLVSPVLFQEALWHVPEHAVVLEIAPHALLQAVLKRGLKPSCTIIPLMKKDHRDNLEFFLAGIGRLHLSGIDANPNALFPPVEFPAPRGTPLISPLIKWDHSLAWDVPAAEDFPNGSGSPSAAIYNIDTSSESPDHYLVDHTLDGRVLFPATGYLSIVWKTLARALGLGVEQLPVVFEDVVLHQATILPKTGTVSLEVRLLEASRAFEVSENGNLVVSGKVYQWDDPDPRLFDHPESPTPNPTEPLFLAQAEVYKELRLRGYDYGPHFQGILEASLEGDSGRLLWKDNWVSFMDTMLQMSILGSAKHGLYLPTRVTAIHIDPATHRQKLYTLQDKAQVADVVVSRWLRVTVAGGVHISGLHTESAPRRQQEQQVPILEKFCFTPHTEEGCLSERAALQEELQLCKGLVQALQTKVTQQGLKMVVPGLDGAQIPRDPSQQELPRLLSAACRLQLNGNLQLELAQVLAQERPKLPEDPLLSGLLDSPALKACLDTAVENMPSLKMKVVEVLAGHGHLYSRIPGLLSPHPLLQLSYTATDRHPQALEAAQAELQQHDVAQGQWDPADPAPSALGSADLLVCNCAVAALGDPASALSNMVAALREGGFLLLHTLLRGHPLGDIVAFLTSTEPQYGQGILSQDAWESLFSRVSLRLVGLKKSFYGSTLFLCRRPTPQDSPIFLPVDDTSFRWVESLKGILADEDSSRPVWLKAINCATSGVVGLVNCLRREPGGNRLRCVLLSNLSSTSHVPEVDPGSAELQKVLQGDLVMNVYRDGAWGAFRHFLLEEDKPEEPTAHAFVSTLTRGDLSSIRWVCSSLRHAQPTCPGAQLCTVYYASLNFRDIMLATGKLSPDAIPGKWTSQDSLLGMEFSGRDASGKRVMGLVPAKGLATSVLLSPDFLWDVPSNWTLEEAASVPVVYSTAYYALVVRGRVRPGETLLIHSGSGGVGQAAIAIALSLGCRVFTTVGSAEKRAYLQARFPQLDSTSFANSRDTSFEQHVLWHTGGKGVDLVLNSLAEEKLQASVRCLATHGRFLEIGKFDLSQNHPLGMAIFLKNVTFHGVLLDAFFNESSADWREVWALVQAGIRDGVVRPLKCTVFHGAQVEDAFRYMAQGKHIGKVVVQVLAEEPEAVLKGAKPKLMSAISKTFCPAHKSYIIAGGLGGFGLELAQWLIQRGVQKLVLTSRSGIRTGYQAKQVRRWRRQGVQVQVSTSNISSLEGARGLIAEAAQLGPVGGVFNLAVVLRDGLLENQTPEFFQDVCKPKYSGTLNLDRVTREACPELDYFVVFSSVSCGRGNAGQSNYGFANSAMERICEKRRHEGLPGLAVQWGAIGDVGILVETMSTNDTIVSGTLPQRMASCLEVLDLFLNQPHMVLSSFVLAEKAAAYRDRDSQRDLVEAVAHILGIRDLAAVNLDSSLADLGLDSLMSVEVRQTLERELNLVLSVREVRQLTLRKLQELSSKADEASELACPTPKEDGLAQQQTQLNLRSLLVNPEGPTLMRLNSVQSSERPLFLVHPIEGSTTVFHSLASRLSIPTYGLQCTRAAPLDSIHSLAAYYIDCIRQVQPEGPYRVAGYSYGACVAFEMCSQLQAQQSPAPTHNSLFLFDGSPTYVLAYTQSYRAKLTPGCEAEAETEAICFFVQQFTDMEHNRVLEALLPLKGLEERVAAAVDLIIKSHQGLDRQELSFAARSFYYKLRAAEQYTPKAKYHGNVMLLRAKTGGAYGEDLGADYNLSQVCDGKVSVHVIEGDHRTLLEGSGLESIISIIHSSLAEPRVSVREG
Sequence of Tumor necrosis factor (P01375 whole entry): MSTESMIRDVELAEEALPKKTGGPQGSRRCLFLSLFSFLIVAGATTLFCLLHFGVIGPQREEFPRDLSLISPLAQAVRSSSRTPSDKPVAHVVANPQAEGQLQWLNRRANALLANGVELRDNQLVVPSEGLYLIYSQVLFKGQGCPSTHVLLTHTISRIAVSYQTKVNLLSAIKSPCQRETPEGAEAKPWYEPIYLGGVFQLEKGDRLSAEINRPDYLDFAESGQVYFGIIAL
Sequence of Glyceraldehyde-3-phosphate dehydrogenase (P04406 whole entry): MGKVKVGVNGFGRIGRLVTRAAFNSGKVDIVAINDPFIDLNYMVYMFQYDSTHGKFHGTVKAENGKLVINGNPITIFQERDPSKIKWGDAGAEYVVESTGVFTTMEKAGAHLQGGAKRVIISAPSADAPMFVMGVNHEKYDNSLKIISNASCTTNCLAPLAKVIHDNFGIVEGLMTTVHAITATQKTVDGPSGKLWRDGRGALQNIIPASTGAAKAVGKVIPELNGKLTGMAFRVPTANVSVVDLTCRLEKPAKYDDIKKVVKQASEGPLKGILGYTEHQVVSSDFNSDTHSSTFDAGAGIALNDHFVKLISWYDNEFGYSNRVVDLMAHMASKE
Sequence of Alkaline phosphatase, placental type (P05187 whole entry): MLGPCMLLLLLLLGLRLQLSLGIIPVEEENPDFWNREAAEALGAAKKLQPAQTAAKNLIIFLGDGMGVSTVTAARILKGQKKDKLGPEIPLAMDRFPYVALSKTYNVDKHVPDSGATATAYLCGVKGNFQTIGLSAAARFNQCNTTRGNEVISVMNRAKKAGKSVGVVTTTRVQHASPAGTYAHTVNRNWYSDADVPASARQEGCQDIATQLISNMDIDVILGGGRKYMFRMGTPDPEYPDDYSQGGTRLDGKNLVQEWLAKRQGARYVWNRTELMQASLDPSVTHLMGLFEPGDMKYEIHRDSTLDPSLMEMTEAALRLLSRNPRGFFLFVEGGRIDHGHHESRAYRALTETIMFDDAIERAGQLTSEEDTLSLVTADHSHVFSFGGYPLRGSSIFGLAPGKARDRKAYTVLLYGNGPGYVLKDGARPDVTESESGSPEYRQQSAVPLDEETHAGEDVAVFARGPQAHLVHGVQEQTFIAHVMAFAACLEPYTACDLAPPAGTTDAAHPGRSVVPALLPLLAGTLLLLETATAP

With `NC(=O)c1ncn([C@@H]2O[C@H](CNCc3cccn3-c3ccncc3)[C@@H](O)[C@H]2O)n1` the AC50 [1] was 24 µM (active).
In the case of `Cc1ccc(S(=O)(=O)n2c(=S)[nH]c3cc(C)ccc32)cc1`, the IC50 [2] is reported as > 25 µM (inactive), the IC50 [3] is reported as > 20 µM (inactive) and the IC50 [4] is reported as > 25 µM (inactive). The IC50 [5] was > 20 µM (inactive) and the IC50 [6] was > 20 µM (inactive).
With `O=C(Cn1sc2ccccc2c1=O)Nc1ccccc1Cl` the IC50 [7] was 4.16 µM (active).
With `O=C1CC(c2cc(-c3ccccc3)no2)C1` the AC50 [1] was 34.5 µM (active).
With `COc1ccc(NC(=O)Nc2ccccc2C(=O)O)cc1` the IC50 [7] was > 25 µM (inactive).
For `COc1cc(NC(=O)c2ccco2)c(OC)cc1NC(=O)c1cc(OC)c(OC)c(OC)c1`, the IC50 [8] was 14.3 µM (active) and the IC50 [9] was 41.3 µM (inactive).
In the case of `Cc1ccc(S(=O)(=O)n2cc(C=O)c3ccccc32)cc1`, the IC50 [10] is reported as 9.59 µM (active), the IC50 [11] is reported as 11 µM (active) and the IC50 [12] is reported as > 20 µM (inactive).
With `O=[N+]([O-])c1ccc2[nH]c(O)c(N=NC(S)=NCC3CCCO3)c2c1` (stereo not drawn) the IC50 [10] was 15.9 µM (active), the IC50 [11] was 0.664 µM (active) and the IC50 [12] was > 20 µM (inactive).
With `CC(C)(C)c1cc(NS(=O)(=O)c2ccc3c(c2)OCCO3)on1` the AC50 [13] was 31 µM (active).
In the case of `Cc1nn(-c2nc3ccccc3[nH]2)c(N)c1-c1ccccc1`, the IC50 [14] is reported as > 66.6 µM (inactive).
With `COc1ccc(S(=O)(=O)N2CCCCCC2)cc1NC(=O)c1c2c(nc3ccccc13)CCN(Cc1ccccc1)C2` the AC50 [13] was 52 µM (active) and the AC50 [1] was 26 µM (active).
With `Fc1ccc(CSc2ncnc3scc(-c4ccccc4)c23)cc1` the IC50 [15] was 2.16 µM (active).
With `N#C/C(=C\c1cccc([N+](=O)[O-])c1)C(=O)NCc1ccc(Cl)cc1` the IC50 [14] was > 66.6 µM (inactive), the IC50 [16] was 4.11 µM (active) and the AC50 [17] was 1.93 µM (active). The IC50 [18] was 4.48 µM (active).
With `O=C(c1cccc(Oc2ccc([N+](=O)[O-])cc2Cl)c1)N1CCCCC1` the IC50 [15] was 5.09 µM (active).
With `CC1=CC(C)(C)n2c(O)c(/N=N/C(=N)S)c3cccc1c32` the IC50 [10] was 6.09 µM (active), the IC50 [11] was 4.79 µM (active) and the IC50 [12] was > 20 µM (inactive).
For `COc1ccc(N(CC(=O)N2CCN(c3ccc(Cl)cc3)CC2)S(=O)(=O)c2c(C)n[nH]c2C)cc1`, the IC50 [9] was > 80 µM (inactive).
For `O=C(Cn1sc2ccccc2c1=O)Nc1cccc(Br)c1`, the IC50 [7] was > 25 µM (inactive).
For `CCN1CCN(C(=O)c2cc(-c3ccc(Cl)cc3Cl)n[nH]2)CC1`, the IC50 [19] was > 100 µM (not active) and the IC50 [20] was > 100 µM (inactive).
For `Cc1ccnc(SCCn2c(N3CC(C)CC(C)C3)nc3c2c(=O)n(C)c(=O)n3C)n1` (stereo not drawn), the EC50 [21] was 39.1 µM (active), the EC50 [22] was > 120 µM (not active) and the AC50 [13] was 35.1 µM (active). For the same compound, the EC50 [23] was > 120 µM (not active).
With `Cc1csc(NC(=O)/C=C/c2ccc3c(c2)OCO3)n1` the IC50 [9] was > 80 µM (inactive).
With `Cc1cccc(/C=N/NC(=O)c2ccccc2OCc2cccc(Br)c2)n1` the IC50 [14] was > 66.6 µM (inactive), the EC50 [24] was 11 µM (active) and the EC50 [25] was 16.1 µM (active). The EC50 [26] was 21.5 µM (active).
